Results taken from patent publication US8461328B2, “Tricyclic heterocyclic compounds, compositions and methods of use thereof” (Genentech, Inc., priority 2010, dated 2013).

Key:
Format in all cases: biochemical
[1] = molecular target: T1, JAK3 (Homo sapiens, UniProt P52333); assay: JAK3 inhibition (Table 4); conditions: read-out: JAK3 Ki
T1 construct: made in house; host or cells: SF9 insect cells (baculovirus)

[2] = molecular target: T2, TYK2 (Homo sapiens, UniProt P29597); assay: TYK2 inhibition (Table 4)
T2 construct: made in house; host or cells: SF9 insect cells (baculovirus)
T2 sequence (P29597 873-1187): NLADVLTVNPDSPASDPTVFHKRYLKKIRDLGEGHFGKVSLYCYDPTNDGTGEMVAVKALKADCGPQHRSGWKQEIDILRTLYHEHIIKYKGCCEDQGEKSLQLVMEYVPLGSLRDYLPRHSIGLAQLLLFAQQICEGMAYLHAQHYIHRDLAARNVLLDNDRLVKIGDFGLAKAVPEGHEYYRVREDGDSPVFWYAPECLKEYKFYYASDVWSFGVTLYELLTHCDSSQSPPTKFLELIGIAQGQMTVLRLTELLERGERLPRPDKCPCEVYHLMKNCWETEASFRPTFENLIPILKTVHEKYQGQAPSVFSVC

[3] = molecular target: T3, JAK2 (Homo sapiens, UniProt O60674); assay: JAK2 inhibition (Table 4); conditions: read-out: JAK2 Ki
T3 construct: made in house; host or cells: SF9 insect cells (baculovirus)
T3 sequence (O60674 812-1132): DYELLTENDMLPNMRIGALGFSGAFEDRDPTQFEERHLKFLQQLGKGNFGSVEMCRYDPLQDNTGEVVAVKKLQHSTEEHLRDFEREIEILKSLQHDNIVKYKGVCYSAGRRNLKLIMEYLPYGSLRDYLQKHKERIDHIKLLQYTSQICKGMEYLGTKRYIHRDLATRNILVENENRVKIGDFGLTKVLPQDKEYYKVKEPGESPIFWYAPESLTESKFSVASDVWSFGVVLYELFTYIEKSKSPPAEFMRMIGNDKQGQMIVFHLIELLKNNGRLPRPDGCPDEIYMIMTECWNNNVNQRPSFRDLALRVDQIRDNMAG

T1 sequence (P52333 783-1124): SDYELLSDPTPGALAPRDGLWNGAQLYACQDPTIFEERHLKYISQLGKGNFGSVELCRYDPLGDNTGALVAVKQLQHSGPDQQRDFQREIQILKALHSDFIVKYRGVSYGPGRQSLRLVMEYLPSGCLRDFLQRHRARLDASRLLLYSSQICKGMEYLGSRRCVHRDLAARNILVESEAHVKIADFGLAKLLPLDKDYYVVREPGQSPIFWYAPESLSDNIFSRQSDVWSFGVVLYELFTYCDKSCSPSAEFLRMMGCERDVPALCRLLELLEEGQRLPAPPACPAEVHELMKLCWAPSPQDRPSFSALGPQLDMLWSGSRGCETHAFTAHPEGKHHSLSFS

Ki [1] | Ki [2] | Ki [3] | SMILES
37.1 nM | 120 nM | 9.51 nM | CC(C)(C)OC(=O)NC1CCC(n2cnc3cnc4[nH]ccc4c32)C1 (racemic) [Example 137, Racemic trans [3-(6H-1,2,3,5,6-Tetraaza-as-indacen-1-yl)-cyclopentyl]-carbamic acid tert-butyl ester]
143 nM | 222 nM | 27.7 nM | CC(C)(C)OC(=O)NC1CCC(n2cnc3cnc4[nH]ccc4c32)C1 (racemic) [Example 138, Racemic cis[3-(6H-1,2,3,5,6-Tetraaza-as-indacen-1-yl)-cyclopentyl]-carbamic acid tert-butyl ester]
31.1 nM | 118 nM | 14.6 nM | O=C(CC(F)(F)F)NC1CCC(n2nnc3cnc4[nH]ccc4c32)C1 (racemic) [Example 619, Racemic trans 3,3,3-trifluoro-N-[3-(6H-1,2,3,5,6-pentaaza-as-indacen-1-yl)-cyclopentyl]-propionamide]
54.3 nM | 28.5 nM | 8.06 nM | COC(=O)NC1CCC(n2cnc3cnc4[nH]ccc4c32)C1 (racemic) [Example 734, [3-(6H-1,3,5,6-Tetraaza-as-indacen-1-yl)-cyclopentyl]-carbamic acid methyl ester]
1980 nM | 295 nM | 94.6 nM | CN1CCCCC1C(=O)N1CCC(n2cnc3cnc4[nH]ccc4c32)CC1 (single isomer, unassigned) [Example 196, (1-Methyl-piperidin-2-yl)-[4-(6H-1,2,3,5,6-tetraaza-as-indacen-1-yl)-piperidin-1-yl]-methanone]
– | – | 1340 nM | CN1CCCCC1C(=O)N1CCC(n2cnc3cnc4[nH]ccc4c32)CC1 (single isomer, unassigned) [Example 196a, (1-Methyl-piperidin-2-yl)-[4-(6H-1,2,3,5,6-tetraaza-as-indacen-1-yl)-piperidin-1-yl]-methanone]
217 nM | 80.1 nM | – | c1cc2c(ncc3ncn(C4CCNCC4)c32)[nH]1 [Example 28, 1-Piperidin-4-yl-1,6-dihydro-1,3,5,6-tetraaza-as-indacene]
239 nM | – | – | N[C@H]1CC[C@H](n2nnc3cnc4[nH]ccc4c32)CC1 [Example 279, 4-(6H-1,2,3,5,6-Pentaaza-as-indacen-1-yl)-cyclohexylamine]
127 nM | – | – | N#CCCN[C@H]1CC[C@H](n2nnc3cnc4[nH]ccc4c32)CC1 [Example 280, 3-[4-(6H-1,2,3,5,6-Pentaaza-as-indacen-1-yl)-cyclohexylamino]-propionitrile]
461 nM | – | – | C[C@@H](O)c1nc2cnc3[nH]ccc3c2n1[C@@H]1CCCN(CCC#N)C1 [Example 362, 3-{(R)-3-[2-((R)-1-Hydroxy-ethyl)-6H-1,3,5,6-tetraaza-as-indacen-1-yl]-piperidin-1-yl}-propionitrile]
140 nM | – | – | O[C@H]1CC[C@H](n2nnc3cnc4[nH]ccc4c32)CC1 [Example 546, trans 4-(6H-1,2,3,5,6-Pentaaza-as-indacen-1-yl)-cyclohexanol]
371 nM | – | – | CO[C@H]1CC[C@H](n2c([C@@H](C)O)nc3cnc4[nH]ccc4c32)CC1 [Example 635, Trans (R)-1-[1-(4-methoxy-cyclohexyl)-1,6-dihydro-1,2,3,5,6-tetraaza-as-indacen-2-yl]-ethanol]
188 nM | – | – | C[C@@H](O)c1nc2cnc3[nH]ccc3c2n1[C@@H]1CCCN(CCC#N)C1 [Example 663, 3-{(R)-3-[2-((R)-1-Hydroxy-ethyl)-6H-1,2,3,5,6-tetraaza-as-indacen-1-yl]-piperidin-1-yl}-propionitrile]
35.7 nM | 15.3 nM | – | CCC(O)c1nc2cnc3[nH]ccc3c2n1C1CCCCC1 (stereo not drawn) [Example 876, 1-(1-Cyclohexyl-1,6-dihydro-1,3,5,6-tetraaza-as-indacen-2-yl)-propan-1-ol]
18.5 nM | – | – | C[C@@H](O)c1nc2cnc3[nH]ccc3c2n1C1CCC(CCC#N)CC1 (stereo partly drawn) [Example 1007, 3-{4-[2-((R)-1-Hydroxy-ethyl)-6H-1,3,5,6-tetraaza-as-indacen-1-yl]-cyclohexyl}-propionitrile]
